# Values of other authors in patent US20090081312A1, “PREVENTION AND TREATMENT OF ALVEOLAR OSTEITIS” (priority 2007, published 2009).
# System: bacterial cell growth
# Conditions: silver ion; B Gibbins, Ostomy Wound Management 2003
smiles,measurement,value
"[Ag+] [silver ion, silver]",quantity sufficient to prevent bacterial cell growth,one
